In US8753875B2, “Compositions and means for diagnosing microbial infections” (priority 2007, dated 2014):
Like-named read-outs stand apart in the source and are kept apart here.

Legend:
[1] = Stability of the antimicrobial in the semi-solid media; type: physicochemical
Description: Stability of the antimicrobial in the semi-solid media may depend on the pH-value. The pH-value should preferably not exceed certain limits as this will influence the antimicrobial effect. The stability of Ampicillin and Mecillinam has been improved by adjusting the pH-value of the semi-solid media to 6.0.

E. faecium [2] = test system: E. faecium; design: key: Susceptible = S; Resistant = R; conditions: cited from earlier work
E. coli [3] = conditions: cited from earlier work
S. agalactiae = test system: S. agalactiae; design: key: Susceptible = S; Resistant = R; conditions: cited from earlier work
Citrobacter = test system: Citrobacter; design: key: Susceptible = S; Resistant = R; conditions: cited from earlier work
Enterobacter = test system: Enterobacter; design: key: Susceptible = S; Resistant = R; conditions: cited from earlier work
S. saprophyticus [4] = test system: S. saprophyticus; design: key: Susceptible = S; Resistant = R; conditions: cited from earlier work
Morganella = test system: Morganella; design: key: Susceptible = S; Resistant = R; conditions: cited from earlier work
E. faecalis [5] = test system: E. faecalis; design: key: Susceptible = S; Resistant = R; conditions: cited from earlier work
E. coli [6] = assay: Growth of E. coli in antibiotic compartments of the platform (FIG. 3); type: cell-based; conditions: illustrated E. coli of FIG. 3
Description: The photos show growth of E. coli at different quantities of bacteria/ml urine.

Citrobacter spp. = assay: Growth on Flexicult plate, susceptibility/resistance to the five antibiotics (FIG. 4, Table A); type: cell-based
Description: (§1) The kit was developed for urine culture in the primary health care setting. It is designed preferably as a nine cm Petri dish divided into six compartments: One larger compartment for quantitative analysis and five smaller compartments for susceptibility testing. The agar in each small compartment contains one of five antimicrobials (for Denmark and Scandinavia preferably: trimethoprim, sulfamethizole, ampicillin, nitrofurantoin and mecillinam (amdinocillin)) at a concentration adjusted to the breakpoint, such that growth in these compartments indicates resistance, and no growth indicates susceptibility. The Petri dish preferably has higher sides, approximately 2.48 cm, than the usual dish, i.e. ca. 1.48 cm. This allows a larger amount, maximum 100 ml, of urine to be poured onto the dish for inoculation.
(§2) Reading the susceptibility of the bacterial growth: Each bacterium (if more than one) is read individually: The growth in each of the antibiotic fields is compared with the growth on the control agar. […] If there is no growth (or substantially less than the control agar), then the bacterium is considered to be susceptible to the antibiotic. […] When nitrofurantoin and mecillinam are used as antibiotics, a few single colonies may be seen of the same type as the bacterium on the control agar: These are not considered to be resistant mutants but “persisters,” i.e. if retested they will appear susceptible. This is commonly seen also by disc diffusion especially for mecillinam.

Proteus mirabilis = assay: as above; type: cell-based
Description: as §1, §2

Candida spp. = assay: as above; type: cell-based
Description: as §1, §2

E. faecium [7] = assay: as above; type: cell-based
Description: as §1, §2

P. aureginosa = assay: as above; type: cell-based
Description: as §1, §2

E. coli [8] = assay: as above; type: cell-based
Description: as §1, §2

Morganella spp. = assay: as above; type: cell-based
Description: as §1, §2

S. saprophyticus [9] = assay: as above; type: cell-based
Description: as §1, §2

E. faecalis [10] = assay: as above; type: cell-based
Description: as §1, §2

Enterobacter spp = assay: as above; type: cell-based
Description: as §1, §2

Klebsiella spp. = assay: as above; type: cell-based
Description: as §1, §2

P. vulgaris [11] = assay: as above; type: cell-based
Description: as §1, §2

P. vulgaris [12] = test system: P. vulgaris; design: key: Susceptible = S; Resistant = R; conditions: cited from earlier work
Klebsiella = test system: Klebsiella; design: key: Susceptible = S; Resistant = R; conditions: cited from earlier work
Candida sp. = test system: Candida sp.; design: key: Susceptible = S; Resistant = R; conditions: cited from earlier work
E. coli [13] = test system: E. coli; design: key: Susceptible = S; Resistant = R; conditions: cited from earlier work
E. coli [14] = conditions: 1142 E. coli outpatient urinary isolates, USA and Canada; cited from earlier work
P. mirabilis = test system: P. mirabilis; design: key: Susceptible = S; Resistant = R; conditions: cited from earlier work
Pseud. Aeruginosa = test system: Pseud. Aeruginosa; design: key: Susceptible = S; Resistant = R; conditions: cited from earlier work
[15] = test system: Staphylococcus saprophyticus ATCC 49907; conditions: 32 mg/l nitrofurantoin; 10^5 CFU/ml suspension, 18-24 hours at 37° C.

## CC1(C)SC2C(NC(=O)C(N)c3ccccc3)C(=O)N2C1C(=O)O (centres unmarked) [Ampicillin, 7-(2-amino-2-phenyl-acetyl)amino-3,3-dimethyl-6-oxo-2-thia-5-azabicyclo[3.2.0]heptane-4-carboxylic acid]
[1]
  stability in the semi-solid media: improved
E. faecium [2]
  Normal susceptibility/resistance: S
E. coli [3]; Austria, n 126
  Antimicrobial resistance of E. coli (resistance in percent): 17.5%
E. coli [3]; Belgium, n 137
  Antimicrobial resistance of E. coli (resistance in percent): 30.7%
E. coli [3]; Canada, n 166
  Antimicrobial resistance of E. coli (resistance in percent): 29.5%
E. coli [3]; Denmark, n 85
  Antimicrobial resistance of E. coli (resistance in percent): 22.4%
E. coli [3]; Finland, n 182
  Antimicrobial resistance of E. coli (resistance in percent): 19.8%
E. coli [3]; France, n 199
  Antimicrobial resistance of E. coli (resistance in percent): 27.6%
E. coli [3]; Germany, n 138
  Antimicrobial resistance of E. coli (resistance in percent): 29.0%
E. coli [3]; Greece, n 132
  Antimicrobial resistance of E. coli (resistance in percent): 22.0%
E. coli [3]; Ireland, n 154
  Antimicrobial resistance of E. coli (resistance in percent): 44.8%
E. coli [3]; Luxembourg, n 24
  Antimicrobial resistance of E. coli (resistance in percent): 41.7%
E. coli [3]; Norway, n 168
  Antimicrobial resistance of E. coli (resistance in percent): 23.8%
E. coli [3]; Portugal, n 86
  Antimicrobial resistance of E. coli (resistance in percent): 45.3%
E. coli [3]; Spain, n 191
  Antimicrobial resistance of E. coli (resistance in percent): 53.9%
E. coli [3]; Sweden, n 193
  Antimicrobial resistance of E. coli (resistance in percent): 15.5%
E. coli [3]; Switzerland, n 122
  Antimicrobial resistance of E. coli (resistance in percent): 27.0%
E. coli [3]; The Netherlands, n 195
  Antimicrobial resistance of E. coli (resistance in percent): 28.7%
E. coli [3]; Total, n 2478
  Antimicrobial resistance of E. coli (resistance in percent): 29.8%
E. coli [3]; United Kingdom, n 180
  Antimicrobial resistance of E. coli (resistance in percent): 37.2%
S. agalactiae
  Normal susceptibility/resistance: S
Citrobacter
  Normal susceptibility/resistance: R
Enterobacter
  Normal susceptibility/resistance: R
S. saprophyticus [4]
  Normal susceptibility/resistance: S
Morganella
  Normal susceptibility/resistance: R
E. faecalis [5]
  Normal susceptibility/resistance: S
E. coli [6]
  resistant or susceptible (growth in antibiotic compartment): resistant
Citrobacter spp.
  Susceptibility = S or Resistance = R: R
Proteus mirabilis
  Susceptibility = S or Resistance = R: S
Candida spp.
  Susceptibility = S or Resistance = R: R
E. faecium [7]
  Susceptibility = S or Resistance = R: S
P. aureginosa
  Susceptibility = S or Resistance = R: R
E. coli [8]
  Susceptibility = S or Resistance = R: R
Morganella spp.
  Susceptibility = S or Resistance = R: R
S. saprophyticus [9]
  Susceptibility = S or Resistance = R: S
E. faecalis [10]
  Susceptibility = S or Resistance = R: S
Enterobacter spp
  Susceptibility = S or Resistance = R: R
Klebsiella spp.
  Susceptibility = S or Resistance = R: R
P. vulgaris [11]
  Susceptibility = S or Resistance = R: R/S
P. vulgaris [12]
  Normal susceptibility/resistance: R
Klebsiella
  Normal susceptibility/resistance: R
Candida sp.
  Normal susceptibility/resistance: R
E. coli [13]
  Normal susceptibility/resistance: S
E. coli [14]
  Overall resistance in E. coli: 37.7%
P. mirabilis
  Normal susceptibility/resistance: S
Pseud. Aeruginosa
  Normal susceptibility/resistance: R

## O=C1CN(N=Cc2ccc([N+](=O)[O-])o2)C(=O)N1 [Nitrofurantoin, 1-[(5-nitro-2-furyl)methylideneamino]imidazolidine-2,4-dione]
E. faecium [2]
  Normal susceptibility/resistance: S
E. coli [3]; Austria, n 126
  Antimicrobial resistance of E. coli (resistance in percent): 0.8%
E. coli [3]; Belgium, n 137
  Antimicrobial resistance of E. coli (resistance in percent): 0.7%
E. coli [3]; Canada, n 166
  Antimicrobial resistance of E. coli (resistance in percent): 1.2%
E. coli [3]; Denmark, n 85
  Antimicrobial resistance of E. coli (resistance in percent): 1.2%
E. coli [3]; Finland, n 182
  Antimicrobial resistance of E. coli (resistance in percent): 0.5%
E. coli [3]; France, n 199
  Antimicrobial resistance of E. coli (resistance in percent): 1.0%
E. coli [3]; Germany, n 138
  Antimicrobial resistance of E. coli (resistance in percent): 0.7%
E. coli [3]; Greece, n 132
  Antimicrobial resistance of E. coli (resistance in percent): 3.0%
E. coli [3]; Ireland, n 154
  Antimicrobial resistance of E. coli (resistance in percent): 0%
E. coli [3]; Luxembourg, n 24
  Antimicrobial resistance of E. coli (resistance in percent): 4.2%
E. coli [3]; Norway, n 168
  Antimicrobial resistance of E. coli (resistance in percent): 0%
E. coli [3]; Portugal, n 86
  Antimicrobial resistance of E. coli (resistance in percent): 5.8%
E. coli [3]; Spain, n 191
  Antimicrobial resistance of E. coli (resistance in percent): 4.2%
E. coli [3]; Sweden, n 193
  Antimicrobial resistance of E. coli (resistance in percent): 0%
E. coli [3]; Switzerland, n 122
  Antimicrobial resistance of E. coli (resistance in percent): 0.8%
E. coli [3]; The Netherlands, n 195
  Antimicrobial resistance of E. coli (resistance in percent): 1.0%
E. coli [3]; Total, n 2478
  Antimicrobial resistance of E. coli (resistance in percent): 1.2%
E. coli [3]; United Kingdom, n 180
  Antimicrobial resistance of E. coli (resistance in percent): 0%
S. agalactiae
  Normal susceptibility/resistance: S
Citrobacter
  Normal susceptibility/resistance: S
Enterobacter
  Normal susceptibility/resistance: S/R
S. saprophyticus [4]
  Normal susceptibility/resistance: S
[15]
  reduction in the growth of/numbers of colonies formed: at least 4 log CFU/ml
Morganella
  Normal susceptibility/resistance: R
E. faecalis [5]
  Normal susceptibility/resistance: S
E. coli [6]
  resistant or susceptible (growth in antibiotic compartment): susceptible
Citrobacter spp.
  Susceptibility = S or Resistance = R: S
Proteus mirabilis
  Susceptibility = S or Resistance = R: S
Candida spp.
  Susceptibility = S or Resistance = R: R
E. faecium [7]
  Susceptibility = S or Resistance = R: R
P. aureginosa
  Susceptibility = S or Resistance = R: R
E. coli [8]
  Susceptibility = S or Resistance = R: S
Morganella spp.
  Susceptibility = S or Resistance = R: R/S
S. saprophyticus [9]
  Susceptibility = S or Resistance = R: S
E. faecalis [10]
  Susceptibility = S or Resistance = R: R
Enterobacter spp
  Susceptibility = S or Resistance = R: S
Klebsiella spp.
  Susceptibility = S or Resistance = R: R
P. vulgaris [11]
  Susceptibility = S or Resistance = R: R/S
P. vulgaris [12]
  Normal susceptibility/resistance: R
Klebsiella
  Normal susceptibility/resistance: S/R
Candida sp.
  Normal susceptibility/resistance: R
E. coli [13]
  Normal susceptibility/resistance: S
E. coli [14]
  Overall resistance in E. coli: 1.1%
P. mirabilis
  Normal susceptibility/resistance: S/R
Pseud. Aeruginosa
  Normal susceptibility/resistance: R
